Measurements published in patent publication US7563791B2, “Pyrrolotriazine derivatives useful for treating hyper-proliferative disorders and diseases associated with angiogenesis” (Bayer Pharmaceuticals Corporation, priority 2004, dated 2009).

Experiments:
HCT116 cells = assay: Tumor cell proliferation (Alamar Blue), HCT116; assay type: cell-based; conditions: Homo sapiens, HCT-116, 72 h
Experimental: (§1) Human tumor cells (e.g., HCT116 or MDA-MB-231 cells), are seeded in a Costar 96-well plate at 3.0×10^3 cells/well and grown in 150 μl of RPMI complete media (Invitrogen Corporation, Grand Island, N.Y.) containing 10% fetal bovine serum (Hyclone, Logan, Utah) at 37° C. for 16 h in an incubator with 5% CO2. To each well, 50 μl of additional growth media containing 40 μM to 18 nM concentrations of compound with 0.4% DMSO is added. Cells are grown for another 72 h at 37° C. with 5% CO2. 20 μl of Alamar Blue (Trek Diagnostic Systems, Inc., Cleveland, Ohio) reagent is added to each well and incubated for 3 h at 37° C. Plates are read in a SpectraMax Gemini (Molecular Devices, Calif.) with 544 nm excitation and 590 nm emission wavelength. IC50 values are determined by linear regression analysis of log drug concentration versus percent inhibition.

MDA-MB-231 cells = assay: Tumor cell proliferation (Alamar Blue), MDA-MB-231; assay type: cell-based; conditions: Homo sapiens, MDA-MB-231, 72 h
Experimental: as §1

Row | SMILES | IC50 (HCT116 cells; bounds given in μM) [µM] | IC50 (MDA-MB-231 cells) [µM] | IC50 (MDA-MB-231 cells; bounds given in μM) [µM] | IC50 (HCT116 cells) [µM]
1 | CC(C)(CN1CCOCC1)NC(=O)c1cn2ncnc(N)c2c1-c1ccc(NC(=O)Nc2cc(C(F)(F)F)ccc2Cl)cc1 [Example 149, 4-amino-5-{4-[({[2-chloro-5-(trifluoromethyl)phenyl]amino}carbonyl)amino]phenyl}-N-(1,1-dimethyl-2-morpholin-4-ylethyl)pyrrolo[2,1-f][1,2,4]triazine-6-carboxamide] | 1.5 to 5 | > 0.5 | < 1.5 | 
2 | N#Cc1cn2ncnc(N)c2c1-c1ccc(NC(=O)Nc2ccnc(C(F)(F)F)c2)cc1 [Example 153, N-[4-(4-amino-6-cyanopyrrolo[2,1-f][1,2,4]triazin-5-yl)phenyl]-N′-[2-(trifluoromethyl)pyridin-4-yl]urea] | 5 to 10 |  | 5 to 10 | 
3 | Nc1ncnn2cc(-c3cnco3)c(-c3ccc(NC(=O)Nc4cc(C(F)(F)F)ccn4)cc3)c12 [Example 156, N-{4-[4-amino-6-(1,3-oxazol-5-yl)pyrrolo[2,1-f][1,2,4]triazin-5-yl]phenyl}-N′-[4-(trifluoromethyl)pyridin-2-yl]urea] | < 1.5 | < 0.5 |  | > 0.5
4 | CC(C)(C)c1cc(NC(=O)Nc2ccc(-c3c(C#N)cn4ncnc(N)c34)cc2)on1 [Example 161, N-[4-(4-amino-6-cyanopyrrolo[2,1-f][1,2,4]triazin-5-yl)phenyl]-N′-(3-tert-butylisoxazol-5-yl)urea] | < 1.5 |  | 1.5 to 5 | > 0.5
5 | COCc1cn2ncnc(N)c2c1-c1ccc(NC(=O)Nc2cc(C(C)(C)C)nn2-c2ccc(F)cc2)cc1 [Example 217, N-{4-[4-amino-6-(methoxymethyl)pyrrolo[2,1-f][1,2,4]triazin-5-yl]phenyl}-N′-[3-tert-butyl-1-(4-fluorophenyl)-1H-pyrazol-5-yl]urea] | 1.5 to 5 | > 0.5 | < 1.5 | 
6 | Nc1ncnn2cc(CN3CCOCC3)c(-c3ccc(NC(=O)Nc4cc(C(F)(F)F)ccn4)cc3)c12 [Example 225, N-{4-[4-amino-6-(morpholin-4-ylmethyl)pyrrolo[2,1-f][1,2,4]triazin-5-yl]phenyl}-N′-[4-(trifluoromethyl)pyridin-2-yl]urea] | 1.5 to 5 |  | 1.5 to 5 | 
7 | CCOC(=O)c1coc(-c2cn3ncnc(N)c3c2-c2ccc(NC(=O)Nc3cc(C(F)(F)F)ccn3)cc2)n1 [Example 232, ethyl 2-(4-amino-5-{4-[({[4-(trifluoromethyl)pyridin-2-yl]amino}carbonyl)amino]phenyl}pyrrolo[2,1-f][1,2,4]triazin-6-yl)-1,3-oxazole-4-carboxylate] | 1.5 to 5 |  | 1.5 to 5 | 
8 | Nc1ncnn2cc(-c3ncco3)c(-c3ccc(NC(=O)Nc4cc(C(F)(F)F)ccn4)cc3)c12 [Example 235, N-{4-[4-amino-6-(1,3-oxazol-2-yl)pyrrolo[2,1-f][1,2,4]triazin-5-yl]phenyl}-N′-[4-(trifluoromethyl)pyridin-2-yl]urea] |  | > 0.5 | < 1.5 | < 0.5
9 | CCOC(=O)c1coc(-c2cn3ncnc(N)c3c2-c2ccc(NC(=O)Nc3cc(C(F)(F)F)ccc3F)cc2)n1 [Example 237, ethyl 2-(4-amino-5-{4-[({[2-fluoro-5-(trifluoromethyl)phenyl]amino}carbonyl)amino]phenyl}pyrrolo[2,1-f][1,2,4]triazin-6-yl)-1,3-oxazole-4-carboxylate] |  |  | 1.5 to 5 | < 0.5
10 | Nc1ncnn2cc(-c3nc(CO)co3)c(-c3ccc(NC(=O)Nc4cc(C(F)(F)F)ccc4F)cc3)c12 [Example 241, N-(4-{4-amino-6-[4-(hydroxymethyl)-1,3-oxazol-2-yl]pyrrolo[2,1-f][1,2,4]triazin-5-yl}phenyl)-N′-[2-fluoro-5-(trifluoromethyl)phenyl]urea] | < 1.5 |  | 1.5 to 5 | > 0.5
